We go through 1 compound from publication PMC5218480 (PLoS ONE, 2017).

The assay deals with MV-4-11 cells. Description: Gene expression microarray analysis (Affymetrix PrimeView) and GSEA. Format: cell-based, human. Details: RFU PODN (11730768_x_at) / Fold change /veh PODN (11730768_x_at) / RFU LINC00158 (11744669_a_at) / Fold change /veh LINC00158 (11744669_a_at) / RFU DUSP10 (11751237_a_at) / Fold change /veh DUSP10 (11751237_a_at) / RFU ID3 (11757404_x_at) / Fold change /veh ID3 (11757404_x_at) / RFU PLEKHG5 (11737974_s_at) / Fold change /veh PLEKHG5 (11737974_s_at) / RFU LRRC4B (11730491_at) / Fold change /veh LRRC4B (11730491_at) / RFU GIMAP4 (11747438_a_at) / Fold change /veh GIMAP4 (11747438_a_at) / RFU KRT8 (11758183_x_at) / Fold change /veh KRT8 (11758183_x_at) / RFU CNN1 (11734310_a_at) / Fold change /veh CNN1 (11734310_a_at) / RFU VPS37D (11726825_at) / Fold change /veh VPS37D (11726825_at) / RFU C10orf10 (11716522_x_at) / Fold change /veh C10orf10 (11716522_x_at) / RFU KIR2DL2 /// KIR2DL4 /// KIR2DL5A /// KIR2DL5B /// KIR2DS1 /// KIR2DS2 /// KIR2DS3 /// KIR2DS4 /// KIR3DL3 /// KIR3DL3 /// KIR3DS1 (11738374_at) / Fold change /veh KIR2DL2 /// KIR2DL4 /// KIR2DL5A /// KIR2DL5B /// KIR2DS1 /// KIR2DS2 /// KIR2DS3 /// KIR2DS4 /// KIR3DL3 /// KIR3DL3 /// KIR3DS1 (11738374_at) / RFU C1QL1 (11718748_at) / Fold change /veh C1QL1 (11718748_at) / RFU TMPRSS4 (11747572_a_at) / Fold change /veh TMPRSS4 (11747572_a_at) / RFU HAMP (11756126_x_at) / Fold change /veh HAMP (11756126_x_at) / RFU RNFT2 (11725882_a_at) / Fold change /veh RNFT2 (11725882_a_at) / RFU NR4A2 (11747474_a_at) / Fold change /veh NR4A2 (11747474_a_at) / RFU ABCC12 (11746883_a_at) / Fold change /veh ABCC12 (11746883_a_at) / RFU TMEM136 (11760407_x_at) / Fold change /veh TMEM136 (11760407_x_at) / RFU CLDN22 /// WWC2 (11732394_at) / Fold change /veh CLDN22 /// WWC2 (11732394_at) / RFU HLA-DPB1 (11760878_x_at) / Fold change /veh HLA-DPB1 (11760878_x_at) / RFU SPINT1 (11716480_a_at) / Fold change /veh SPINT1 (11716480_a_at) / RFU GAP43 (11754022_s_at) / Fold change /veh GAP43 (11754022_s_at) / RFU A4GNT (11735810_at) / Fold change /veh A4GNT (11735810_at) / RFU PRB3 (11715151_x_at) / Fold change /veh PRB3 (11715151_x_at) / RFU TUBB4B (11761932_at) / Fold change /veh TUBB4B (11761932_at) / RFU CAPN14 (11732068_a_at) / Fold change /veh CAPN14 (11732068_a_at) / RFU TMCC2 (11721928_a_at) / Fold change /veh TMCC2 (11721928_a_at) / RFU IRGQ (11745062_a_at) / Fold change /veh IRGQ (11745062_a_at) / RFU FAM174B (11720279_a_at) / Fold change /veh FAM174B (11720279_a_at) / RFU TMPRSS4 (11748680_a_at) / Fold change /veh TMPRSS4 (11748680_a_at) / RFU FAM212B (11763350_a_at) / Fold change /veh FAM212B (11763350_a_at) / RFU PLEKHG5 (11743358_a_at) / Fold change /veh PLEKHG5 (11743358_a_at) / RFU ZSCAN30 (11745921_a_at) / Fold change /veh ZSCAN30 (11745921_a_at) / RFU CMKLR1 (11741424_a_at) / Fold change /veh CMKLR1 (11741424_a_at) / RFU LOC101060620 /// MAPK8IP1 (11723275_at) / Fold change /veh LOC101060620 /// MAPK8IP1 (11723275_at) / RFU SPTSSB (11747773_x_at) / Fold change /veh SPTSSB (11747773_x_at) / RFU PRSS12 (11739890_at) / Fold change /veh PRSS12 (11739890_at) / RFU BIN1 (11741810_x_at) / Fold change /veh BIN1 (11741810_x_at) / RFU WNT11 (11732464_a_at) / Fold change /veh WNT11 (11732464_a_at) / RFU C10orf10 (11716521_a_at) / Fold change /veh C10orf10 (11716521_a_at) / RFU C5orf56 (11738089_at) / Fold change /veh C5orf56 (11738089_at) / RFU CYB561 (11721691_x_at) / Fold change /veh CYB561 (11721691_x_at) / RFU ANKRD19P (11752326_a_at) / Fold change /veh ANKRD19P (11752326_a_at) / RFU OR2T12 /// OR2T33 /// OR2T8 (11738714_s_at) / Fold change /veh OR2T12 /// OR2T33 /// OR2T8 (11738714_s_at) / RFU VCAN (11748164_a_at) / Fold change /veh VCAN (11748164_a_at) / RFU JSRP1 (11732532_at) / Fold change /veh JSRP1 (11732532_at) / RFU KRTAP10-11 (11738290_x_at) / Fold change /veh KRTAP10-11 (11738290_x_at) / RFU MYO3A (11730013_a_at) / Fold change /veh MYO3A (11730013_a_at) / RFU EBF3 (11725865_a_at) / Fold change /veh EBF3 (11725865_a_at) / RFU CAMK2N1 (11719241_x_at) / Fold change /veh CAMK2N1 (11719241_x_at) / RFU C5orf56 (11738088_a_at) / Fold change /veh C5orf56 (11738088_a_at) / RFU OLFML3 (11715873_a_at) / Fold change /veh OLFML3 (11715873_a_at) / RFU LOC100653217 /// NTM (11731650_a_at) / Fold change /veh LOC100653217 /// NTM (11731650_a_at) / RFU MAPK11 (11762145_a_at) / Fold change /veh MAPK11 (11762145_a_at) / RFU FIZ1 (11724087_x_at) / Fold change /veh FIZ1 (11724087_x_at) / RFU OASL (11726364_x_at) / Fold change /veh OASL (11726364_x_at) / RFU SOX15 (11748057_x_at) / Fold change /veh SOX15 (11748057_x_at) / RFU CD79A (11719716_a_at) / Fold change /veh CD79A (11719716_a_at) / RFU HIST1H1D (11736915_at) / Fold change /veh HIST1H1D (11736915_at) / RFU CASKIN2 (11723855_a_at) / Fold change /veh CASKIN2 (11723855_a_at) / RFU LOC730098 (11760151_x_at) / Fold change /veh LOC730098 (11760151_x_at) / RFU OR4N2 (11742367_at) / Fold change /veh OR4N2 (11742367_at) / RFU PRRT2 (11749266_a_at) / Fold change /veh PRRT2 (11749266_a_at) / RFU SNX32 (11753110_a_at) / Fold change /veh SNX32 (11753110_a_at) / RFU CDHR5 (11726645_a_at) / Fold change /veh CDHR5 (11726645_a_at) / RFU RCAN1 (11760418_a_at) / Fold change /veh RCAN1 (11760418_a_at) / RFU FAM167A (11723789_a_at) / Fold change /veh FAM167A (11723789_a_at) / RFU FAM26E (11764081_at) / Fold change /veh FAM26E (11764081_at) / RFU ISYNA1 (11749810_s_at) / Fold change /veh ISYNA1 (11749810_s_at) / RFU ACY1 (11761880_at) / Fold change /veh ACY1 (11761880_at) / RFU 11764098_at / Fold change /veh 11764098_at / RFU SAMD14 (11745864_x_at) / Fold change /veh SAMD14 (11745864_x_at) / RFU NPB (11741838_a_at) / Fold change /veh NPB (11741838_a_at) / RFU TMPRSS6 (11731388_a_at) / Fold change /veh TMPRSS6 (11731388_a_at) / RFU KRTAP10-2 (11738614_at) / Fold change /veh KRTAP10-2 (11738614_at) / RFU ARHGAP8 /// PRR5-ARHGAP8 (11727945_x_at) / Fold change /veh ARHGAP8 /// PRR5-ARHGAP8 (11727945_x_at) / RFU KRTAP5-7 /// NADSYN1 (11734609_at) / Fold change /veh KRTAP5-7 /// NADSYN1 (11734609_at) / RFU RASL12 (11751679_a_at) / Fold change /veh RASL12 (11751679_a_at) / RFU CDKN2B (11736163_a_at) / Fold change /veh CDKN2B (11736163_a_at) / RFU PRF1 (11729649_at) / Fold change /veh PRF1 (11729649_at) / RFU, ZNF638 /// ZNF638-IT1 / Fold change vs veh, ZNF638 /// ZNF638-IT1 / RFU, PANK3 / Fold change vs veh, PANK3 / RFU, SH3YL1 / Fold change vs veh, SH3YL1 / RFU, ZEB2 / Fold change vs veh, ZEB2 / RFU, NRIP1 / Fold change vs veh, NRIP1 / RFU, PTTG1IP / Fold change vs veh, PTTG1IP / RFU, CAPN2 / Fold change vs veh, CAPN2 / RFU, MED14 / Fold change vs veh, MED14 / RFU, SNORA58 / Fold change vs veh, SNORA58 / RFU, C1orf63 / Fold change vs veh, C1orf63 / RFU, LRRFIP1 / Fold change vs veh, LRRFIP1 / RFU, NDUFAF7 / Fold change vs veh, NDUFAF7 / RFU, SLC12A2 / Fold change vs veh, SLC12A2 / RFU, IBTK / Fold change vs veh, IBTK / RFU, ESF1 / Fold change vs veh, ESF1 / Fold change vs veh, TMEM50B / RFU, TAOK1 / Fold change vs veh, TAOK1 / RFU, ACBD3 / Fold change vs veh, ACBD3 / RFU, TMA16 / Fold change vs veh, TMA16 / RFU, RWDD3 / Fold change vs veh, RWDD3 / RFU, BCAT1 / Fold change vs veh, BCAT1 / RFU, EDEM3 / Fold change vs veh, EDEM3 / RFU, TMEM33 / Fold change vs veh, TMEM33 / RFU, WDR75 / Fold change vs veh, WDR75 / RFU, AHCTF1 / Fold change vs veh, AHCTF1 / RFU, TFRC / Fold change vs veh, TFRC / RFU, ZDHHC17 / Fold change vs veh, ZDHHC17 / RFU, NOM1 / Fold change vs veh, NOM1 / RFU, ARL8B / Fold change vs veh, ARL8B / RFU, ZBTB11 / Fold change vs veh, ZBTB11 / RFU, TAMM41 / Fold change vs veh, TAMM41 / RFU, KIAA1704 /// LOC100996395 / Fold change vs veh, KIAA1704 /// LOC100996395 / RFU, ING1 / Fold change vs veh, ING1 / RFU, TRMT61B / Fold change vs veh, TRMT61B / RFU, FUBP3 / Fold change vs veh, FUBP3 / RFU, TP53 / Fold change vs veh, TP53 / RFU, TNKS2 / Fold change vs veh, TNKS2 / RFU, ZFP14 / Fold change vs veh, ZFP14 / RFU, ACTR2 / Fold change vs veh, ACTR2 / RFU, PPP3R1 / Fold change vs veh, PPP3R1 / RFU, PIK3R1 / Fold change vs veh, PIK3R1 / RFU, HNRNPA1 / Fold change vs veh, HNRNPA1 / RFU, RNF170 / Fold change vs veh, RNF170 / RFU, ZNF28 / Fold change vs veh, ZNF28 / RFU, RNGTT / Fold change vs veh, RNGTT / RFU, OGT / Fold change vs veh, OGT / RFU, BRD1 / Fold change vs veh, BRD1 / RFU, MARS / Fold change vs veh, MARS / RFU, ZNF655 / Fold change vs veh, ZNF655 / RFU, FAHD1 / Fold change vs veh, FAHD1 / RFU, BDP1 / Fold change vs veh, BDP1 / RFU, LRRCC1 / Fold change vs veh, LRRCC1 / RFU, ARID1A / Fold change vs veh, ARID1A / RFU, ZNF146 / Fold change vs veh, ZNF146 / RFU, ZNF330 / Fold change vs veh, ZNF330 / RFU, GPN3 / Fold change vs veh, GPN3 / RFU, C9orf123 / Fold change vs veh, C9orf123 / RFU, N4BP2L2 / Fold change vs veh, N4BP2L2 / RFU, ARFIP1 / Fold change vs veh, ARFIP1 / RFU, FAM179B / Fold change vs veh, FAM179B / RFU, BCL10 / Fold change vs veh, BCL10 / RFU, UHRF1BP1L / Fold change vs veh, UHRF1BP1L / RFU, BET1 / Fold change vs veh, BET1 / RFU, CNOT2 / Fold change vs veh, CNOT2 / RFU, ZNF268 / Fold change vs veh, ZNF268 / Fold change vs veh, ZNF507 / RFU, DGCR2 / Fold change vs veh, DGCR2 / RFU, WDSUB1 / Fold change vs veh, WDSUB1 / Fold change vs veh, HSP90B1 /// MIR3652 / RFU, ADSS / Fold change vs veh, ADSS / RFU, GK / Fold change vs veh, GK / RFU, ZNF148 / Fold change vs veh, ZNF148 / RFU, TAF9 / Fold change vs veh, TAF9 / RFU, SLC1A5 / Fold change vs veh, SLC1A5 / RFU, SLMO2 / Fold change vs veh, SLMO2 / RFU, ABCC4 / Fold change vs veh, ABCC4 / RFU, LOC101060439 /// RAP1B / Fold change vs veh, LOC101060439 /// RAP1B / RFU, RFX7 / Fold change vs veh, RFX7 / RFU, GTPBP10 / Fold change vs veh, GTPBP10 / RFU, CNEP1R1 / Fold change vs veh, CNEP1R1 / RFU, BIVM-ERCC5 /// ERCC5 / Fold change vs veh, BIVM-ERCC5 /// ERCC5 / RFU, ILF3 / Fold change vs veh, ILF3 / RFU 11762660_at / Fold change /veh 11762660_at / RFU VCAN (11757783_s_at) / Fold change /veh VCAN (11757783_s_at) / RFU DDX43 (11728927_at) / Fold change /veh DDX43 (11728927_at) / RFU KRT8 (11758188_x_at) / Fold change /veh KRT8 (11758188_x_at) / RFU NKD1 (11759106_at) / Fold change /veh NKD1 (11759106_at) / RFU SRD5A1 (11742802_a_at) / Fold change /veh SRD5A1 (11742802_a_at) / RFU TPSAB1 /// TPSB2 (11721975_s_at) / Fold change /veh TPSAB1 /// TPSB2 (11721975_s_at) / RFU GSTM3 (11746129_a_at) / Fold change /veh GSTM3 (11746129_a_at) / RFU IL23R (11737362_x_at) / Fold change /veh IL23R (11737362_x_at) / RFU TMEM51 (11727254_a_at) / Fold change /veh TMEM51 (11727254_a_at) / RFU PIWIL2 (11732686_x_at) / Fold change /veh PIWIL2 (11732686_x_at) / RFU ORM1 (11744905_x_at) / Fold change /veh ORM1 (11744905_x_at) / RFU CCDC152 (11743942_at) / Fold change /veh CCDC152 (11743942_at) / RFU ECM1 (11717891_a_at) / Fold change /veh ECM1 (11717891_a_at) / RFU IL23R (11748794_a_at) / Fold change /veh IL23R (11748794_a_at) / RFU TNFAIP8L3 (11732012_x_at) / Fold change /veh TNFAIP8L3 (11732012_x_at) / RFU MBOAT4 (11741988_at) / Fold change /veh MBOAT4 (11741988_at) / RFU 11764193_at / Fold change /veh 11764193_at / RFU TMEM53 (11763286_at) / Fold change /veh TMEM53 (11763286_at) / RFU MAGEB2 (11727129_at) / Fold change /veh MAGEB2 (11727129_at) / RFU TMEM200A (11744735_a_at) / Fold change /veh TMEM200A (11744735_a_at) / RFU CCDC152 (11751479_a_at) / Fold change /veh CCDC152 (11751479_a_at) / RFU FAM211A (11726209_a_at) / Fold change /veh FAM211A (11726209_a_at) / RFU RGS16 (11746705_a_at) / Fold change /veh RGS16 (11746705_a_at) / RFU VCAN (11755009_s_at) / Fold change /veh VCAN (11755009_s_at) / RFU RHOB (11743442_s_at) / Fold change /veh RHOB (11743442_s_at) / RFU RGS16 (11720943_a_at) / Fold change /veh RGS16 (11720943_a_at) / RFU RGS16 (11720944_at) / Fold change /veh RGS16 (11720944_at) / RFU, VPS4B / Fold change vs veh, VPS4B / RFU, CREB1 / Fold change vs veh, CREB1 / RFU, DNAJC13 / Fold change vs veh, DNAJC13 / RFU, GNAQ / Fold change vs veh, GNAQ / RFU, CDK5R1 / Fold change vs veh, CDK5R1 / RFU, ZRANB3 / Fold change vs veh, ZRANB3 / RFU, CUL4A / Fold change vs veh, CUL4A / RFU, CCNY / Fold change vs veh, CCNY / RFU, UFL1 / Fold change vs veh, UFL1 / RFU, COG3 / Fold change vs veh, COG3 / RFU, DIAPH2 / Fold change vs veh, DIAPH2 / RFU, SKA2 / Fold change vs veh, SKA2 / RFU, AFF3 / Fold change vs veh, AFF3 / RFU, LMF1 / Fold change vs veh, LMF1 / RFU, IPO11 / Fold change vs veh, IPO11 / RFU, DFFB / Fold change vs veh, DFFB / RFU, FOXP1 / Fold change vs veh, FOXP1 / RFU, CARD8 / Fold change vs veh, CARD8 / RFU, STRN3 / Fold change vs veh, STRN3 / RFU, ADK / Fold change vs veh, ADK / RFU, RASSF2 / Fold change vs veh, RASSF2 / RFU, WIPF1 / Fold change vs veh, WIPF1 / RFU, LARP1B / Fold change vs veh, LARP1B / RFU, RASA1 / Fold change vs veh, RASA1 / RFU, RB1 / Fold change vs veh, RB1 / RFU, PPFIA1 / Fold change vs veh, PPFIA1 / RFU, MAT2A / Fold change vs veh, MAT2A / RFU, CCT5 / Fold change vs veh, CCT5 / RFU, WDR92 / Fold change vs veh, WDR92 / RFU, CUX1 / Fold change vs veh, CUX1 / RFU, TTC7A / Fold change vs veh, TTC7A / RFU, TMEM135 / Fold change vs veh, TMEM135 / RFU, DEPTOR / Fold change vs veh, DEPTOR / RFU, CPM / Fold change vs veh, CPM / RFU, DNAJB6 / Fold change vs veh, DNAJB6 / RFU, CACNA2D3 / Fold change vs veh, CACNA2D3 / RFU, DTX4 / Fold change vs veh, DTX4 / RFU, TFCP2 / Fold change vs veh, TFCP2 / RFU, GMCL1 /// GMCL1P1 / Fold change vs veh, GMCL1 /// GMCL1P1 / RFU, AEBP2 / Fold change vs veh, AEBP2 / RFU, SNHG1 /// SNORD22 /// SNORD25 /// SNORD26 /// SNORD27 /// SNORD28 /// SNORD29 /// SNORD31 / Fold change vs veh, SNHG1 /// SNORD22 /// SNORD25 /// SNORD26 /// SNORD27 /// SNORD28 /// SNORD29 /// SNORD31 / Fold change (Aza/veh), C12orf56 (ProbeSet 11735607_a_at) / Fold change (ACY-1035/veh), C12orf56 (ProbeSet 11735607_a_at) / Fold change (Aza/veh), FGFR1OP (ProbeSet 11751329_s_at) / Fold change (ACY-1035/veh), FGFR1OP (ProbeSet 11751329_s_at) / Fold change (Aza/veh), VPS36 (ProbeSet 11739960_a_at) / Fold change (ACY-1035/veh), VPS36 (ProbeSet 11739960_a_at) / RFU SYPL1 (11715823_x_at) / Fold change /veh SYPL1 (11715823_x_at) / RFU IGFBP7 (11715501_s_at) / Fold change /veh IGFBP7 (11715501_s_at) / RFU REEP3 (11722064_at) / Fold change /veh REEP3 (11722064_at) / RFU IGLL1 (11728026_x_at) / Fold change /veh IGLL1 (11728026_x_at): dose or concentration left out as unconfirmed. The following applies: MV-4-11 cells, 48 hours.

In the case of `Nc1ccc(-c2cccs2)cc1NC(=O)c1ccc2c(c1)cc(C1CC1)n2CCN1CCOCC1` [ACY-1035], the “Fold change /veh TMCC2 (11721928_a_at)” value is recorded as 1.04.
